According to patent publication US12715851B2, “4′-substituted analogues of fisetin and their use in the treatment of cancer” (Stellenbosch University, priority 2020, dated 2026):

Experiments:
[1] = system: 22rv1 prostate carcinoma cells; conditions: retained on methylation of the 3-hydroxy group; cited from earlier work
[2] = system: a range of cancer cell lines; conditions: reported in the literature; cited from earlier work
SOD = assay: Hepatotoxicity: specific activity of SOD; assay type: in vivo, swiss albino mice; conditions: liver of treated mice
Method: (§1) Hepatotoxicity is considered to be one of the major challenges for drug development schemes. The liver is the primary organ for the metabolism or biotransformation of a given drug. To assess the hepatotoxicity of these compounds, the effects of Fisetin and analogue 3c on various hepatic enzymes was assessed.
(§2) A lipid peroxidation assay was performed on microsomal liver fraction and determined in terms of TBARS formation. […] The modulatory effects of Fisetin and analogue 3c were determined on the specific activities of cytochrome b5 reductase (Cytb5R) and cytochrome P450 reductase (CytP450R), phase I enzyme of xenobiotic metabolism. Fisetin and analogue 3c caused reduction in the specific activity of cytochrome b5 reductase. Fisetin decreased Cytb5R specific activity by 66% whereas analogue 3c (50 mg/kg) caused a 36% reduction in specific activity (FIG. 7F). An increase in specific activity of CytP450R by Fisetin and analogue 3c was observed. Fisetin and analogue 3c (50 mg/kg) increased the specific activity by 15% and 13%, respectively (FIG. 7G). Next, the specific activities of phase II enzymes, glutathione S-transferase (GST) and reduced glutathione (GSH) were measured. […] Fisetin and analogue 3c (50 mg/kg) caused a decrease in specific activity of GSH by 34% and 7%, respectively (FIG. 7I). […] These analogues are therefore likely to be effective and safe phytochemicals.

[3] = system: cytochrome P450 reductase (CytP450R); assay: Hepatotoxicity: specific activity of cytochrome P450 reductase; assay type: in vivo, swiss albino mice; conditions: 50 mg/kg orally, two weeks
Method: as §1, §2

[4] = system: glutathione S-transferase (GST); assay: Hepatotoxicity: specific activity of glutathione S-transferase; assay type: in vivo, swiss albino mice; conditions: liver of treated mice
Method: as §1, §2

[5] = system: cytochrome b5 reductase (Cytb5R); assay: Hepatotoxicity: specific activity of cytochrome b5 reductase; assay type: in vivo, swiss albino mice; conditions: 50 mg/kg orally, two weeks
Method: as §1, §2

[6] = system: reduced glutathione (GSH); assay: Hepatotoxicity: reduced glutathione; assay type: in vivo, swiss albino mice; conditions: 50 mg/kg orally, two weeks
Method: as §1, §2

[7] = cited from earlier work
[8] = system: B(a)P-induced lung carcinogenesis; assay: B(a)P-induced lung carcinogenesis, Initiation and Promotion Protocols; assay type: in vivo, Swiss albino mice
Excerpt: To assess whether Fisetin and its 4-bromo-Fisetin analogue (Fisetin analogue 3c) have anticarcinogenesis activity and if any toxicity in terms of water and food consumption, and body weight, Benzo[a]pyrene [B(a)P] induced lung carcinogenesis in Swiss albino mice were employed in the study. Along with the antitumor activity of the agents, the body weight, food and water intake in different treatment groups were monitored on regular intervals and analysed.
There were six different treatment groups in the study including, (1) control, (2) B(a)P, (3) Fisetin+B(a)P, (4) Fisetin analogue 3c+B(a)P, (5) B(a)P+Fisetin and (6) B(a)P+Fisetin analogue 3c.
Groups 3 and 4 represent the Initiation Protocol (agents treatment started 1 week before carcinogen treatment and continued 1 week after the last dose of the carcinogen). Groups 5 and 6 represent the Promotion Protocol (agents treatment started after 3 weeks of the carcinogen treatment). The B(a)P was given orally twice a week for 4 weeks at 50 mg/kg body weight dose, whereas Fisetin and Fisetin analogue (3c) were administered orally at 25 mg/kg body weight thrice weekly (see FIG. 9).

[9] = Acute toxicity, fed orally for two weeks; assay type: in vivo; conditions: Fisetin 50 mg/kg, 3c 25 and 50 mg/kg body weight
Method: Fisetin analogue 3c was used to assess the potential toxicity of these analogues in a pre-clinical model. To test the acute toxicity, Fisetin (50 mg/kg body weight), analogue 3c (25 mg/kg and 50 mg/kg body weight), and vehicle control (5% DMSO, 45% PEG-300 and 50% saline) was fed orally for two weeks. Abnormal clinical signs such as decreased motor activity, sensory reflection, body weight, food intake, and water intake were monitored during the treatment period. An increase in body weight was observed among all groups throughout the treatment period (FIG. 7A). […] This variation could be due to consistent frequency of dosage.

[10] = system: lipid peroxidation (MDA formation); assay: Hepatotoxicity: lipid peroxidation assay on microsomal liver fraction (TBARS); assay type: in vivo, swiss albino mice; conditions: microsomal liver fraction of treated mice
Method: as §1, §2

## COc1cc(-c2oc3ccccc3c(=O)c2O)cc(OC)c1OC [TMFol]
[1]
  activity against 22rv1 prostate carcinoma cells: low micromolar activity

## O=C1C[C@@H](c2ccc(O)cc2)Oc2cc(O)cc(O)c21 [navingenin]
[2]
  activity against cancer cell lines compared to apigenin: inactive

## O=c1c(O)c(-c2ccc(O)c(O)c2)oc2cc(O)ccc12 [Fisetin]
SOD
  specific activity of SOD: moderately induced
[3]
  increase in specific activity of CytP450R: 15%
[4]
  specific activities of GST compared to the control group: did not cause significant change
[5]
  reduction in specific activity of cytochrome b5 reductase: 66%
[6]
  decrease in specific activity of GSH: 34%
[7]
  pKa of the 4′-hydroxyl group: ~ 9.4
[7]; most acidic position
  pKa of the 7-hydroxyl group: ~ 7.3
[8]; 25 mg/kg orally thrice weekly
  systemic toxicity during long-term application: did not show any systemic toxicity
  tumorigenic features in lung histology (nucleus size, cytoplasmic content, alveoli): reversal of the tumorigenic features
[8]; compared to the carcinogen treated group
  tumor incidence, histopathology of H&E stained serial sections: less
[8]; tumor initiation phase / initiation protocol
  area or size of tumor lesions, in words: not effective as compared to the analogue
[8]; versus B(a)P group
  tumor lesions per mouse and total number of lesions per group, in words: strongly reduced
[9]
  toxicity in mice, in words: did not cause toxicity
[10]
  MDA formation (TBARS): No significant change
